Assay results reported in PubChem BioAssay (NCI).
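Protocol summary: plate cells (96-well), add compound at 5 concentrations, incubate 48 h, interpolate endpoints linearly. Abbreviation: GI50, concentration required for 50% inhibition of growth. TGI: concentration producing complete growth inhibition.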 *1 amine or outer side, *2 acyl side, *3 side chain or, on linkers, in order; H or OH if unused. Where a SMILES comes first, the peptide text is derived from it. Bridges are numbered along the chain shown (N, C = ends). Roman numbers before positions name the chains, in order. [ ]: non-standard residue; d: D form. ξ: configuration not given here. Actinocin(1to9) = Cc1c2oc3c(C)ccc(C(=O)[*:2])c3nc-2c(C(=O)[*:1])c(N)c1=O; Pro(4-oxo) = O=C1CN[C@H](C(=O)O)C1; Thr(3ξ) = CC(O)[C@H](N)C(=O)O; NMeV = CN[C@H](C(=O)O)C(C)C; Sar = CNCC(=O)O

Legend:
Assay in all cases: DTP human tumour cell line panel, 48 h
HCT-15 colon = test system: HCT-15 colon
NCI/ADR-RES ovarian = test system: NCI/ADR-RES ovarian
HCC-2998 colon = test system: HCC-2998 colon
M14 melanoma = test system: M14 melanoma
MOLT-4 leukemia = test system: MOLT-4 leukemia
SK-OV-3 ovarian = test system: SK-OV-3 ovarian
A498 renal = test system: A498 renal
NCI-H23 lung = test system: NCI-H23 lung
KM12 colon = test system: KM12 colon
HOP-92 NSCLC = test system: HOP-92 NSCLC
786-0 renal = test system: 786-0 renal
SF-295 CNS = test system: SF-295 CNS
DU-145 prostate = test system: DU-145 prostate
MDA-MB-231 breast = test system: MDA-MB-231 breast
RPMI-8226 leukemia = test system: RPMI-8226 leukemia
OVCAR-3 ovarian = test system: OVCAR-3 ovarian
OVCAR-4 ovarian = test system: OVCAR-4 ovarian
BT-549 breast = test system: BT-549 breast
MDA-MB-435 = test system: MDA-MB-435
TK-10 renal = test system: TK-10 renal
T-47D breast = test system: T-47D breast
IGROV1 ovarian = test system: IGROV1 ovarian
SK-MEL-5 melanoma = test system: SK-MEL-5 melanoma
SK-MEL-28 melanoma = test system: SK-MEL-28 melanoma
SF-539 CNS = test system: SF-539 CNS
SNB-19 CNS = test system: SNB-19 CNS
HL-60(TB) leukemia = test system: HL-60(TB) leukemia
SN12C renal = test system: SN12C renal
EKVX NSCLC = test system: EKVX NSCLC
HS 578T breast = test system: HS 578T breast
NCI-H460 lung = test system: NCI-H460 lung
PC-3 prostate = test system: PC-3 prostate
CCRF-CEM leukemia = test system: CCRF-CEM leukemia
K-562 leukemia = test system: K-562 leukemia
NCI-H522 lung = test system: NCI-H522 lung
SK-MEL-2 melanoma = test system: SK-MEL-2 melanoma
UACC-62 melanoma = test system: UACC-62 melanoma
SR leukemia = test system: SR leukemia
U251 CNS = test system: U251 CNS
MALME-3M melanoma = test system: MALME-3M melanoma
OVCAR-8 ovarian = test system: OVCAR-8 ovarian
OVCAR-5 ovarian = test system: OVCAR-5 ovarian
SF-268 CNS = test system: SF-268 CNS
HOP-62 NSCLC = test system: HOP-62 NSCLC
MDA-MB-468 breast = test system: MDA-MB-468 breast
RXF 393 renal = test system: RXF 393 renal
COLO 205 colon = test system: COLO 205 colon
SW-620 colon = test system: SW-620 colon
SNB-75 CNS = test system: SNB-75 CNS

## Cc1c2oc3c(C)ccc(C(=O)N[C@@H]4C(=O)N[C@H](C(C)C)C(=O)N5CCC[C@H]5C(=O)N(C)CC(=O)N(C)[C@@H](C(C)C)C(=O)OC4C)c3nc-2c(C(=O)N[C@@H]2C(=O)N[C@H](C(C)C)C(=O)N3CC(=O)C[C@H]3C(=O)N(C)CC(=O)N(C)[C@@H](C(C)C)C(=O)OC2C)c(N)c1=O (stereo partly drawn) (I: [Thr(3ξ)][dV][Pro(4-oxo)][Sar][NMeV] / II: [Thr(3ξ)][dV]P[Sar][NMeV]; ester I:1-I:C, II:1-II:C; linker I:N-II:N via Actinocin(1to9))
HCT-15 colon
  GI50: < 10 nM
  TGI: 10100 nM
NCI/ADR-RES ovarian
  GI50: 52 nM
  TGI: 1060 nM
HCC-2998 colon
  GI50: < 10 nM
  TGI: < 11.4 nM
M14 melanoma
  GI50: < 10 nM
  TGI: < 21.5 nM
MOLT-4 leukemia
  GI50: < 10 nM
  TGI: 25.2 nM
SK-OV-3 ovarian
  GI50: < 10 nM
  TGI: 490 nM
A498 renal
  GI50: < 10 nM
  TGI: < 10 nM
NCI-H23 lung
  GI50: < 10 nM
  TGI: < 10 nM
KM12 colon
  GI50: < 10 nM
  TGI: 6980 nM
HOP-92 NSCLC
  GI50: < 10 nM
  TGI: < 10 nM
786-0 renal
  GI50: < 10 nM
  TGI: 10300 nM
SF-295 CNS
  GI50: < 10 nM
  TGI: 92 nM
DU-145 prostate
  GI50: < 10 nM
  TGI: 30300 nM
MDA-MB-231 breast
  GI50: < 10 nM
  TGI: 16.7 nM
RPMI-8226 leukemia
  GI50: < 10 nM
  TGI: 14.7 nM
OVCAR-3 ovarian
  GI50: < 10 nM
  TGI: 1980 nM
OVCAR-4 ovarian
  GI50: < 10 nM
  TGI: 4600 nM
BT-549 breast
  GI50: < 10 nM
  TGI: < 10 nM
MDA-MB-435
  GI50: < 10 nM
  TGI: < 10 nM
TK-10 renal
  GI50: < 10 nM
  TGI: 6400 nM
T-47D breast
  GI50: < 10 nM
  TGI: < 10 nM
IGROV1 ovarian
  GI50: < 10 nM
  TGI: 4590 nM
SK-MEL-5 melanoma
  GI50: < 10 nM
  TGI: < 10 nM
SK-MEL-28 melanoma
  GI50: < 10 nM
  TGI: < 10 nM
SF-539 CNS
  GI50: < 10 nM
  TGI: < 10 nM
SNB-19 CNS
  GI50: < 10 nM
  TGI: 172 nM
HL-60(TB) leukemia
  GI50: < 10 nM
  TGI: 48.3 nM
SN12C renal
  GI50: < 10 nM
  TGI: 579 nM
EKVX NSCLC
  GI50: < 10 nM
  TGI: < 33.2 nM
HS 578T breast
  GI50: < 10 nM
  TGI: 197 nM
NCI-H460 lung
  GI50: < 10 nM
  TGI: 10300 nM
PC-3 prostate
  GI50: < 10 nM
  TGI: 294 nM
CCRF-CEM leukemia
  GI50: < 10 nM
  TGI: 35.2 nM
K-562 leukemia
  GI50: < 10 nM
  TGI: 163 nM
NCI-H522 lung
  GI50: < 10 nM
  TGI: < 10 nM
SK-MEL-2 melanoma
  GI50: < 10 nM
  TGI: < 10 nM
UACC-62 melanoma
  GI50: < 10 nM
  TGI: < 10 nM
SR leukemia
  GI50: < 10 nM
  TGI: < 10.4 nM
U251 CNS
  GI50: < 10 nM
  TGI: 5750 nM
MALME-3M melanoma
  GI50: < 10 nM
  TGI: < 10 nM
OVCAR-8 ovarian
  GI50: < 10 nM
  TGI: 17700 nM
OVCAR-5 ovarian
  GI50: < 10 nM
  TGI: 3200 nM
SF-268 CNS
  GI50: < 10 nM
  TGI: 1100 nM
HOP-62 NSCLC
  GI50: < 10 nM
  TGI: < 10 nM
MDA-MB-468 breast
  GI50: < 10 nM
  TGI: < 10 nM
RXF 393 renal
  GI50: < 10 nM
  TGI: < 10 nM
COLO 205 colon
  GI50: < 10 nM
  TGI: < 10 nM
SW-620 colon
  GI50: < 10 nM
  TGI: 11300 nM
SNB-75 CNS
  GI50: < 10 nM
  TGI: < 10 nM
